The subject of the assay is influenza virus H1N1. The assay is described as follows: Hemagglutination test of supernatants of influenza-infected A549 cells. In kind it is cell-based, influenza virus H1N1 (A549 cells). As to conditions: for hemagglutination titer, average values: average of the two inoculation treatments (Protocol 1 and 2); for inhibitory effect on the influenza virus (in words): from average hemagglutination titers, high titer indicates high virus content. Here is the method: A total of four samples were prepared in this experiment: • (1) a lauric acid sample: 3.5 mg of lauric acid was dissolved in 0.5 mL of dimethyl sulfoxide, and then diluted with 9.5 mL of cell culture medium to a final concentration of 0.35 mg/mL and a pH value of the sample was 10.1; • (2) an α-monolaurin sample: 4.8 mg of α-monolaurin was dissolved in 0.5 mL of dimethyl sulfoxide, and then diluted with 9.5 mL of cell culture medium to a final concentration of 0.48 mg/mL and a pH value of the sample was 10.3; • (3) a triglycerol monolaurin sample: 7.5 mg of triglycerol monolaurin was diluted with 10 mL of cell culture medium to a final concentration of 0.75 mg/mL and a pH value of the sample was 7.6; and • (4) a triglycerol monolaurin acidic emulsion sample: 50 mg of triglycerol monolaurin acidic emulsion sample was diluted with 10 mL of cell culture medium to a final concentration of 5 mg/mL and a pH value of the sample was 7.5.
According to equivalent lauric acid concentration conversion, lauric acid concentrations in the samples (2) to (4) were all 0.35 mg/mL, which was equal to that in the sample (1).
The A549 cells were cultured in a 24-well plate, after growing to a monolayer, the cells were treated according to the following two protocols: • I. The cell culture medium was removed, the virus was added, the cells were cultured in an incubator with 5% CO2 at 37° C. for 1 h, the virus solution was removed, each prepared sample was added, 12 parallel test wells were set for each group, and the cells were cultured in the incubator with 5% CO2 at 37° C. for 1 h. After the culture, liquids in the cell culture wells were removed, the cells were washed with PBS, added with a cell maintenance medium, and cultured in the incubator with 5% CO2 at 37° C. for 24 h. Meanwhile, a virus positive control group (a cell culture medium mixed with influenza virus 24HAU was added) was set. • II. The cell culture medium was removed, each prepared sample and the virus were added, 12 parallel test wells were set for each group, and the cells were cultured in an incubator with 5% CO2 at 37° C. for 1 h. After the culture, liquids in the cell culture wells were removed, the cells were washed with PBS, added with a cell maintenance medium, and cultured in the incubator with 5% CO2 at 37° C. for 24 h. Meanwhile, a virus positive control group (a cell culture medium mixed with influenza virus 24HAU was added) was set.
Cell culture supernatants respectively obtained by the above 2 treatment methods were used for hemagglutination test, each culture plate was frozen and thawed repeatedly 3 times, a cell solution was collected for extraction of RNA, which was used for qRT-PCR detection of nucleoprotein (NP).

As for `CCCCCCCCCCCC(=O)O` [(1), lauric acid], the “hemagglutination titer, average values” worked out at 4.75 and the “inhibitory effect on the influenza virus (in words)” value is “weaker compared to the sample (4)”.
The corresponding values for `CCCCCCCCCCCC(=O)OCC(O)CO` (stereo not drawn) [(2), α-monolaurin] are 2.25 and “the strongest”.
As to triglycerol monolaurin [(3)], the “hemagglutination titer, average values” was 4.25 and the “inhibitory effect on the influenza virus (in words)” value was “weaker compared to the sample (4)”.

The values above are taken from US20230301957A1, “PO[…] ACID ESTER COMPOSITION AND APPLICATION THEREOF” (SINGAO (XUZHOU) BIOTECH CO., LTD, priority 2020, published 2023).
